Experimental data published in PubChem BioAssay (NCI).
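Each compound was tested at five concentrations against cells in 96-well plates for 48 hours. At the GI50, growth is halved. Definition used: TGI = concentration required for complete inhibition of growth.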

Experiments:
Test in all cases: growth of human tumour cells (NCI), 48 h
[1] = system: BT-549 breast
[2] = system: K-562 leukemia
[3] = system: HOP-62 NSCLC
[4] = system: UACC-257 melanoma
[5] = system: 786-0 renal
[6] = system: OVCAR-3 ovarian
[7] = system: HS 578T breast
[8] = system: DU-145 prostate
[9] = system: SW-620 colon
[10] = system: NCI-H226 lung
[11] = system: PC-3 prostate
[12] = system: SF-268 CNS
[13] = system: SR leukemia
[14] = system: UO-31 renal
[15] = system: SK-MEL-5 melanoma
[16] = system: NCI-H460 lung
[17] = system: TK-10 renal
[18] = system: ACHN renal
[19] = system: LOX IMVI melanoma
[20] = system: RXF 393 renal
[21] = system: SF-295 CNS
[22] = system: SK-MEL-2 melanoma
[23] = system: HCT-116 colon
[24] = system: CAKI-1 renal
[25] = system: IGROV1 ovarian
[26] = system: CCRF-CEM leukemia
[27] = system: A498 renal
[28] = system: NCI-H23 lung
[29] = system: RPMI-8226 leukemia
[30] = system: U251 CNS
[31] = system: MCF7 breast
[32] = system: SNB-19 CNS
[33] = system: A549 NSCLC
[34] = system: MOLT-4 leukemia
[35] = system: SN12C renal
[36] = system: OVCAR-8 ovarian
[37] = system: NCI-H522 lung
[38] = system: MALME-3M melanoma
[39] = system: OVCAR-4 ovarian
[40] = system: HT29 colon
[41] = system: SK-MEL-28 melanoma
[42] = system: T-47D breast
[43] = system: HOP-92 NSCLC
[44] = system: SF-539 CNS
[45] = system: MDA-MB-435
[46] = system: SNB-75 CNS
[47] = system: HCT-15 colon
[48] = system: HCC-2998 colon
[49] = system: SK-OV-3 ovarian
[50] = system: EKVX NSCLC
[51] = system: COLO 205 colon
[52] = system: KM12 colon
[53] = system: HL-60(TB) leukemia
[54] = system: UACC-62 melanoma
[55] = system: OVCAR-5 ovarian
[56] = system: M14 melanoma
[57] = system: NCI/ADR-RES ovarian
[58] = system: MDA-MB-231 breast

**Q.** What does the source list for `O=C(COc1ccc(/C=C2\Oc3ccc4ccccc4c3C2=O)cc1)c1ccc([N+](=O)[O-])cc1`?
**A.** GI50 [1]: 11.1 µM; TGI [1]: 26.4 µM; GI50 [2]: 5.19 µM; TGI [2]: > 100 µM; GI50 [3]: 26.7 µM; TGI [3]: 61.6 µM; GI50 [4]: 18.9 µM; TGI [4]: 58.5 µM; GI50 [5]: 14.7 µM; TGI [5]: 34.6 µM; GI50 [6]: 4.59 µM; TGI [6]: 17.4 µM; GI50 [7]: 18.5 µM; TGI [7]: 57 µM; GI50 [8]: 10.9 µM; TGI [8]: 23.1 µM; GI50 [9]: 3.88 µM; TGI [9]: 14.1 µM; GI50 [10]: 16.7 µM; TGI [10]: 39.1 µM; GI50 [11]: 9.36 µM; TGI [11]: 21.3 µM; GI50 [12]: 13.2 µM; TGI [12]: 33.7 µM; GI50 [13]: 0.0291 µM; TGI [13]: 1.84 µM; GI50 [14]: 10.6 µM; TGI [14]: 39.3 µM; GI50 [15]: 13.2 µM; TGI [15]: 28.9 µM; GI50 [16]: 16.5 µM; TGI [16]: 40.2 µM; GI50 [17]: 16.6 µM; TGI [17]: 49.3 µM; GI50 [18]: 28.3 µM; TGI [18]: 88.2 µM; GI50 [19]: 2.88 µM; TGI [19]: 10.8 µM; GI50 [20]: 8.55 µM; TGI [20]: 60.5 µM; GI50 [21]: 13.7 µM; TGI [21]: 36.4 µM; GI50 [22]: 15.5 µM; TGI [22]: 73.7 µM; GI50 [23]: 3.03 µM; TGI [23]: 13.8 µM; GI50 [24]: 18.8 µM; TGI [24]: 35.4 µM; GI50 [25]: 4.06 µM; TGI [25]: 34.1 µM; GI50 [26]: 1.81 µM; TGI [26]: 4.12 µM; GI50 [27]: 41.5 µM; TGI [27]: > 100 µM; GI50 [28]: 12.5 µM; TGI [28]: 29.4 µM; GI50 [29]: 1.6 µM; TGI [29]: 5.11 µM; GI50 [30]: 13.1 µM; TGI [30]: 25.8 µM; GI50 [31]: 1.71 µM; TGI [31]: 20.3 µM; GI50 [32]: 15.6 µM; TGI [32]: 35.6 µM; GI50 [33]: 45 µM; TGI [33]: > 100 µM; GI50 [34]: 1.87 µM; TGI [34]: 5.56 µM; GI50 [35]: 10.5 µM; TGI [35]: 30.7 µM; GI50 [36]: 4.88 µM; TGI [36]: 23.2 µM; GI50 [37]: 2.04 µM; TGI [37]: 5.41 µM; GI50 [38]: 13.3 µM; TGI [38]: 39.8 µM; GI50 [39]: 2.14 µM; TGI [39]: 8.87 µM; GI50 [40]: 9.05 µM; TGI [40]: 24 µM; GI50 [41]: 19.4 µM; TGI [41]: 40.2 µM; GI50 [42]: 2.85 µM; TGI [42]: 23.8 µM; GI50 [43]: 19.8 µM; TGI [43]: 69.6 µM; GI50 [44]: 13.8 µM; TGI [44]: 28.1 µM; GI50 [45]: 12.2 µM; TGI [45]: 29.1 µM; GI50 [46]: 1.47 µM; TGI [46]: 13.6 µM; GI50 [47]: 7.6 µM; TGI [47]: 20.4 µM; GI50 [48]: 16.7 µM; TGI [48]: 31.6 µM; GI50 [49]: 24.2 µM; TGI [49]: 73.7 µM; GI50 [50]: 47.6 µM; TGI [50]: > 100 µM; GI50 [51]: 11.2 µM; TGI [51]: 33.5 µM; GI50 [52]: 10.9 µM; TGI [52]: 23.4 µM; GI50 [53]: 2.61 µM; TGI [53]: 16.2 µM; GI50 [54]: 11.9 µM; TGI [54]: 25.9 µM; GI50 [55]: 16.4 µM; TGI [55]: 30.7 µM; GI50 [56]: 12.1 µM; TGI [56]: 40.6 µM; GI50 [57]: 21.8 µM; TGI [57]: 82.1 µM; GI50 [58]: 19 µM; TGI [58]: 71.9 µM
